Laboratory results: article PMC5766581, “NF-κB inducing kinase is a therapeutic target for systemic lupus erythematosus” (Nature Communications, 2018)

Key:
Experiment in all cases: SelectScreen kinase panel
Type in all cases: biochemical
[1] = biological target: T1, TYK2 (Homo sapiens, UniProt P29597)
T1 construct: purchased Invitrogen / ThermoFisher SelectScreen
Protocol: (§1) The ability of NIK to catalyze the hydrolysis of adenosine-5′-triphosphate (ATP) was monitored using the Transcreener ADP (adenosine-5′-diphosphate) assay (Bell Brook Labs, Fitchburg, WI). Purified human NIK kinase domain (a.a. 340–694) (0.5 nM) or mouse NIK kinase domain (a.a. 329–675) (1 nM) derived from a baculovirus-infected insect cell expression system was incubated with test compounds for 0.5–2 h in 50 mM HEPES buffer (pH 7.2) containing 10 mM MgCl2, 2 mM dithiothreitol, 10 μM ATP, 0.01% Triton X-100, 0.1% gamma-globulins from bovine blood, 1% dimethylsulfoxide (DMSO), 7 μg/mL ADP antibody and 5 nM ADP-MR121 633 tracer. Reactions were quenched by the addition of 20 mM EDTA and 0.01% Brij 35. The tracer bound to the antibody was displaced by the ADP generated during the NIK reaction, which caused a decrease in fluorescence polarization that was measured by laser excitation at 633 nm with a Fluorescence Correlation Spectroscopy Plus reader (Evotec AG). Equilibrium dissociation constant (Ki) values for NIK inhibitors are calculated from plots of activity vs. inhibitor concentration using Morrison’s quadratic equation that accounts for the potential of tight binding, and by also applying the conversion factor that accounted for competitive inhibition and the concentration of substrate used in the assay relative to its Michaelis constant (Km). The Ki values with hPKD1 (PKCμ) were determined using the same assay conditions as for NIK. Ki measurements for hKHS1 and hLRRK2, as well as broad kinase selectivity profiling for SMI1, were carried out by Invitrogen using their SelectScreen kinase assay panel (ThermoFisher Scientific, Madison, WI). The vendor offered two types of kinase activity assays, a peptide phosphorylation assay (Z′-LYTE) and an ADP quantitation assay (Adapta), as well as one type of kinase ATP site competitive binding assay (LanthaScreen). See vendor web site for technology and protocol details for each specific kinase assay.
(§2) The average % Inhibition of each kinase is reported (Supplementary Table 1).

[2] = biological target: T2, GSK3_alpha (Homo sapiens, UniProt P49840)
T2 construct: purchased Invitrogen / ThermoFisher SelectScreen
Protocol: as §1, §2

[3] = biological target: T3, Fgr (Homo sapiens, UniProt P09769)
T3 construct: purchased Invitrogen / ThermoFisher SelectScreen
Protocol: as §1, §2

[4] = biological target: T4, TXK (Homo sapiens, UniProt P42681)
T4 construct: purchased Invitrogen / ThermoFisher SelectScreen
Protocol: as §1, §2

[5] = biological target: T5, EphB3 (Homo sapiens, UniProt P54753)
T5 construct: purchased Invitrogen / ThermoFisher SelectScreen
Protocol: as §1, §2

[6] = biological target: T6, IGF1R (Homo sapiens, UniProt P08069)
T6 construct: purchased Invitrogen / ThermoFisher SelectScreen
Protocol: as §1, §2

[7] = biological target: T7, CamKIV (Homo sapiens, UniProt Q16566)
T7 construct: purchased Invitrogen / ThermoFisher SelectScreen
Protocol: as §1, §2

[8] = biological target: T8, PKC_alpha (Homo sapiens, UniProt P17252)
T8 construct: purchased Invitrogen / ThermoFisher SelectScreen
Protocol: as §1, §2

[9] = biological target: T9, Kit (Homo sapiens, UniProt P10721)
T9 construct: purchased Invitrogen / ThermoFisher SelectScreen
Protocol: as §1, §2

[10] = biological target: T10, SRPK1 (Homo sapiens, UniProt Q96SB4)
T10 construct: purchased Invitrogen / ThermoFisher SelectScreen
Protocol: as §1, §2

[11] = biological target: T11, p70S6K (Homo sapiens, UniProt P23443)
T11 construct: purchased Invitrogen / ThermoFisher SelectScreen
Protocol: as §1, §2

[12] = biological target: T12, Fes (Homo sapiens, UniProt P07332)
T12 construct: purchased Invitrogen / ThermoFisher SelectScreen
Protocol: as §1, §2

[13] = biological target: T13, MAPKAPK3 (Homo sapiens, UniProt Q16644)
T13 construct: purchased Invitrogen / ThermoFisher SelectScreen
Protocol: as §1, §2

[14] = biological target: T14, NEK4 (Homo sapiens, UniProt P51957)
T14 construct: purchased Invitrogen / ThermoFisher SelectScreen
Protocol: as §1, §2

[15] = biological target: T15, Yes (Homo sapiens, UniProt P07947)
T15 construct: purchased Invitrogen / ThermoFisher SelectScreen
Protocol: as §1, §2

[16] = biological target: T16, CDK2/CyclinA (Homo sapiens, UniProt P24941)
T16 construct: purchased Invitrogen / ThermoFisher SelectScreen
Protocol: as §1, §2

[17] = biological target: T17, Blk (Homo sapiens, UniProt P51451)
T17 construct: purchased Invitrogen / ThermoFisher SelectScreen
Protocol: as §1, §2

[18] = biological target: T18, TSSK1 (Homo sapiens, UniProt Q9BXA7)
T18 construct: purchased Invitrogen / ThermoFisher SelectScreen
Protocol: as §1, §2

[19] = biological target: T19, Ret (Homo sapiens, UniProt P07949)
T19 construct: purchased Invitrogen / ThermoFisher SelectScreen
Protocol: as §1, §2

[20] = biological target: T20, RSK3 (Homo sapiens, UniProt Q15349)
T20 construct: purchased Invitrogen / ThermoFisher SelectScreen
Protocol: as §1, §2

[21] = biological target: T21, CK1_delta (Homo sapiens, UniProt P48730)
T21 construct: purchased Invitrogen / ThermoFisher SelectScreen
Protocol: as §1, §2

[22] = biological target: T22, PASK (Homo sapiens, UniProt Q96RG2)
T22 construct: purchased Invitrogen / ThermoFisher SelectScreen
Protocol: as §1, §2

[23] = biological target: T23, PKC_beta1 (Homo sapiens, UniProt P05771)
T23 construct: purchased Invitrogen / ThermoFisher SelectScreen
Protocol: as §1, §2

[24] = biological target: T24, MST3 (Homo sapiens, UniProt Q9Y6E0)
T24 construct: purchased Invitrogen / ThermoFisher SelectScreen
Protocol: as §1, §2

[25] = biological target: T25, HIPK1 (Homo sapiens, UniProt Q86Z02)
T25 construct: purchased Invitrogen / ThermoFisher SelectScreen
Protocol: as §1, §2

[26] = biological target: T26, Brk (Homo sapiens, UniProt Q13882)
T26 construct: purchased Invitrogen / ThermoFisher SelectScreen
Protocol: as §1, §2

[27] = biological target: T27, ROCK2 (Homo sapiens, UniProt O75116)
T27 construct: purchased Invitrogen / ThermoFisher SelectScreen
Protocol: as §1, §2

[28] = biological target: T28, TBK1 (Homo sapiens, UniProt Q9UHD2)
T28 construct: purchased Invitrogen / ThermoFisher SelectScreen
Protocol: as §1, §2

[29] = biological target: T29, FAK (Homo sapiens, UniProt Q05397)
T29 construct: purchased Invitrogen / ThermoFisher SelectScreen
Protocol: as §1, §2

[30] = biological target: T30, InsR (Homo sapiens, UniProt P06213)
T30 construct: purchased Invitrogen / ThermoFisher SelectScreen
Protocol: as §1, §2

[31] = biological target: T31, JAK3 (Homo sapiens, UniProt P52333)
T31 construct: purchased Invitrogen / ThermoFisher SelectScreen
Protocol: as §1, §2

[32] = biological target: T32, YSK1 (Homo sapiens, UniProt O00506)
T32 construct: purchased Invitrogen / ThermoFisher SelectScreen
Protocol: as §1, §2

[33] = biological target: T33, Syk (Homo sapiens, UniProt P43405)
T33 construct: purchased Invitrogen / ThermoFisher SelectScreen
Protocol: as §1, §2

T1 sequence (P29597 whole entry): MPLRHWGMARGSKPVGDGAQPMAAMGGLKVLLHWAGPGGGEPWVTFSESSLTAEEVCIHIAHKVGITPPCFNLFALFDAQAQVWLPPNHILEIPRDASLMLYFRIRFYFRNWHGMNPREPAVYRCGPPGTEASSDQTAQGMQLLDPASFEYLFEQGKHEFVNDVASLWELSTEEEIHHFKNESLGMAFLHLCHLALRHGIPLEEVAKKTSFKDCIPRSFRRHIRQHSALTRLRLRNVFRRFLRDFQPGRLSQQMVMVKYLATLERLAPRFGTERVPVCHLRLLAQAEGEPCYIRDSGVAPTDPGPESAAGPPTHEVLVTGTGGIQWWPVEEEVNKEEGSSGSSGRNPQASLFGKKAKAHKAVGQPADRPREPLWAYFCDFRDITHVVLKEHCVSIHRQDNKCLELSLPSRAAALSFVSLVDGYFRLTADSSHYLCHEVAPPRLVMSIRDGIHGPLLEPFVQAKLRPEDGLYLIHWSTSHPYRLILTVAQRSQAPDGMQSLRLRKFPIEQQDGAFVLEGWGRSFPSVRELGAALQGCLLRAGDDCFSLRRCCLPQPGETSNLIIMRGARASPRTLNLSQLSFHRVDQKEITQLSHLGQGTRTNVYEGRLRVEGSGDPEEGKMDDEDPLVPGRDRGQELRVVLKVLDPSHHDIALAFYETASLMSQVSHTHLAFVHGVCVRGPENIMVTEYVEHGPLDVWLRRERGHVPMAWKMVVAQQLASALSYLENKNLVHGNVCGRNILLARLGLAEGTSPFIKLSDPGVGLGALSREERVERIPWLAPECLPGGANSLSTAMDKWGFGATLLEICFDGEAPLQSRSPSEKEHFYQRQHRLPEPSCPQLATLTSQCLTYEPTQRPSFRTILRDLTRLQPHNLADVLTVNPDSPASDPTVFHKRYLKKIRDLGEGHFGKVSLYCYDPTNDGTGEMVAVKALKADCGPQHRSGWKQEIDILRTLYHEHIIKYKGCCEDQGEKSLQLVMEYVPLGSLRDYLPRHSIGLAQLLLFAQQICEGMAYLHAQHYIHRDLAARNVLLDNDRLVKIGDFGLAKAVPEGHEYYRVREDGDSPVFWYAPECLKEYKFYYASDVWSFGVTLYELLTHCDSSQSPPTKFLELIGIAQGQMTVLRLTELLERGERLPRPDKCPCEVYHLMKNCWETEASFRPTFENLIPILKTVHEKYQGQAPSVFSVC
T5 sequence (P54753 34-998): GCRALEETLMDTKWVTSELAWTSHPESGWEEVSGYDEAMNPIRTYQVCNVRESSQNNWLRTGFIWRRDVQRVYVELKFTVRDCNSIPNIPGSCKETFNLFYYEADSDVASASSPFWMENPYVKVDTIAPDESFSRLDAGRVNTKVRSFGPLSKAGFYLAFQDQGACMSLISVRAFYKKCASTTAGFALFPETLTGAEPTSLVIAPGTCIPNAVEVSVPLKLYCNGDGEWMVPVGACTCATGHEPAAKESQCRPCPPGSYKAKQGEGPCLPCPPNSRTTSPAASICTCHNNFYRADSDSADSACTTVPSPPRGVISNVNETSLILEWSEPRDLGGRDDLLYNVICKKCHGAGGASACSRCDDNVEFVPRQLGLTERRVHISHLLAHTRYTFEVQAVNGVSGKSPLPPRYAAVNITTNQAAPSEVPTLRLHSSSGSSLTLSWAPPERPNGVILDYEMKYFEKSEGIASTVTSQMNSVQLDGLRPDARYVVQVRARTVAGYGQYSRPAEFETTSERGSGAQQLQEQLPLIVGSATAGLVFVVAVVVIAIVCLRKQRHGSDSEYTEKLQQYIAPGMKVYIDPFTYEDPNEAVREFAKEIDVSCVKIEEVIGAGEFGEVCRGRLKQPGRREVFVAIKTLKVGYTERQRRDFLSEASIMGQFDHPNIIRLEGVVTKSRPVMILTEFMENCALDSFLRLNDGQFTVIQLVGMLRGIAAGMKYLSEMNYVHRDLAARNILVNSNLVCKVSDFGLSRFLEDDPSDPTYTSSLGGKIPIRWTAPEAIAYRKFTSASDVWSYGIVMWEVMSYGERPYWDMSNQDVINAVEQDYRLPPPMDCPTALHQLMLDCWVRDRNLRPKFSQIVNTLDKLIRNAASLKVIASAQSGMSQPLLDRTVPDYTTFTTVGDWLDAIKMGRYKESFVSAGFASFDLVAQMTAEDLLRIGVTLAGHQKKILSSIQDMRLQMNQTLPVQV
T31 sequence (P52333 whole entry): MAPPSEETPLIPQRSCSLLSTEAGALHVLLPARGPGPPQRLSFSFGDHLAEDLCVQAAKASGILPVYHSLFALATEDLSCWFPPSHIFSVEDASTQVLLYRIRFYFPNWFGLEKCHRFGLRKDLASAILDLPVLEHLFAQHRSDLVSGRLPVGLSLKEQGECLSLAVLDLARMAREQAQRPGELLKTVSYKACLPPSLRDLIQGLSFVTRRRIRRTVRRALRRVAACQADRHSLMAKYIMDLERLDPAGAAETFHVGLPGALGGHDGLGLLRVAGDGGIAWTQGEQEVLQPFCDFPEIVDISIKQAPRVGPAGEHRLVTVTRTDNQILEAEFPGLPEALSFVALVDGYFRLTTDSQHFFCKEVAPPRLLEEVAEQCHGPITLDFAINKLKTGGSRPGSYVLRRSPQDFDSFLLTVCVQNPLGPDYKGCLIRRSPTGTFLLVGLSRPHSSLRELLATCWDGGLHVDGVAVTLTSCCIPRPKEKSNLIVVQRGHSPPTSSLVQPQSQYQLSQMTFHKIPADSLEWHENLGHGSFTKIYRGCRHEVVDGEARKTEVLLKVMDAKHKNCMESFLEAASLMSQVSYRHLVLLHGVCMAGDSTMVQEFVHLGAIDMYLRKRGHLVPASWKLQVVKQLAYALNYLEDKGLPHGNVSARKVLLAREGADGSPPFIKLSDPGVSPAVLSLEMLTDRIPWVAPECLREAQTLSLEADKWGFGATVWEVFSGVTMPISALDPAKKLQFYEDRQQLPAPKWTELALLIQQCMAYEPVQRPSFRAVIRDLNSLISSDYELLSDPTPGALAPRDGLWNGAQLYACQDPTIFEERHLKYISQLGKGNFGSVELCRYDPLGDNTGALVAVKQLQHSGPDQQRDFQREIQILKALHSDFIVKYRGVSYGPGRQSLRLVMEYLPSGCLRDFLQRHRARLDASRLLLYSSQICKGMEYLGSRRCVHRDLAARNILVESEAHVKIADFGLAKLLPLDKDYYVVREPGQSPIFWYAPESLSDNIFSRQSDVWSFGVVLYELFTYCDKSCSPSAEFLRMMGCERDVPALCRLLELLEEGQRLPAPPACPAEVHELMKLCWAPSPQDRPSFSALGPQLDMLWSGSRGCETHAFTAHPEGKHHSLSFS
T30 sequence (P06213 28-1382): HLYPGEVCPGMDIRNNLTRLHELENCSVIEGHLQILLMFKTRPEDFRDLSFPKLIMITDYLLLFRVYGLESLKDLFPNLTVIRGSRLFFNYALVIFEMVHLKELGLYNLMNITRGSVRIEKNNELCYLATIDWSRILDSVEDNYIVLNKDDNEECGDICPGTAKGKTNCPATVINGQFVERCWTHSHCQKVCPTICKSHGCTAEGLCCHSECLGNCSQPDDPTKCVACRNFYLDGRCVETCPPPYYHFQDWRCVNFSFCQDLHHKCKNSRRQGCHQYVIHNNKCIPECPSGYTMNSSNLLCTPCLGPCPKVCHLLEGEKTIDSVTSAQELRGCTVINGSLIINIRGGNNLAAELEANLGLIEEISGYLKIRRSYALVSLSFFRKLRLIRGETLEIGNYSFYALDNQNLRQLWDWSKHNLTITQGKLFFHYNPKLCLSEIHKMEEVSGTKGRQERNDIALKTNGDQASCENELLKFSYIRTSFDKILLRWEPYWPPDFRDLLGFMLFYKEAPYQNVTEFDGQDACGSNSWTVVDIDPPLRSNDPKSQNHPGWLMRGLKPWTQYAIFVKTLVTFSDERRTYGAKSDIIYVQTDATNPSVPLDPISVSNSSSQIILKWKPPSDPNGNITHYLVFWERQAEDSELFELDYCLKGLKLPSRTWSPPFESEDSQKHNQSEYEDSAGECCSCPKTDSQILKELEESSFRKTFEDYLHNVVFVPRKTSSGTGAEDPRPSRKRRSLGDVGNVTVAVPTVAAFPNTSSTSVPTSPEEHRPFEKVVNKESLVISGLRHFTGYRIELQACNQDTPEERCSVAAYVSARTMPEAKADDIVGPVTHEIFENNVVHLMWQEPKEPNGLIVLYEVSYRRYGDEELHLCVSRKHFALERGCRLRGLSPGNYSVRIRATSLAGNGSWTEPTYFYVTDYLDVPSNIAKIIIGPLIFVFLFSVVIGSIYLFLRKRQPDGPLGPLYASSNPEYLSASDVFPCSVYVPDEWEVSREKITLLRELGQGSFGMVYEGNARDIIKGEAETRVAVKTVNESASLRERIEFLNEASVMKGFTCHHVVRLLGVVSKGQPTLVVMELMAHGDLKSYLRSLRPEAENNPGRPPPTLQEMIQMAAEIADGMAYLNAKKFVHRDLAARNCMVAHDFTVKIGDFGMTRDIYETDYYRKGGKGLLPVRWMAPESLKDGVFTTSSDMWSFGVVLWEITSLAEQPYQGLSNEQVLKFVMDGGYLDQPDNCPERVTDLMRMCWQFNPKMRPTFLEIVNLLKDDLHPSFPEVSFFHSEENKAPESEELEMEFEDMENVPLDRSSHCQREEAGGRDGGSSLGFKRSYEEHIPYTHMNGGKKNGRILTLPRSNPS
T24 sequence (Q9Y6E0 whole entry): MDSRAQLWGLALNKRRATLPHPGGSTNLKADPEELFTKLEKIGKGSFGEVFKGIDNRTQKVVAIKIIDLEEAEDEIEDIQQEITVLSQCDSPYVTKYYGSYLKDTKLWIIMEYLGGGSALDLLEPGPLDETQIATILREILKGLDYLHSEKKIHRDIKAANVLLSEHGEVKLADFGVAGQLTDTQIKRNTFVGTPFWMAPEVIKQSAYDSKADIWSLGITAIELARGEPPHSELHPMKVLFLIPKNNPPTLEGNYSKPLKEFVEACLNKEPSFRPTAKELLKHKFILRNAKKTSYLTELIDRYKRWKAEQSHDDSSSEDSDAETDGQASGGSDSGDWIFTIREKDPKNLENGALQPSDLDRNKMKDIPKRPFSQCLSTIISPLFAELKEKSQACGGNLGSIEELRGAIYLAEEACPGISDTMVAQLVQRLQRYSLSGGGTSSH

`COc1cc(C(N)=O)nc(-c2cccc(C#C[C@]3(O)CCN(C)C3=O)c2)c1` [NIK SMI1] gave an inhibition at 1 µM [1] of 2%, an inhibition at 1 µM [2] of 15% and an inhibition at 1 µM [3] of 8%. For the same compound, the inhibition at 1 µM [4] was 4.5%, the inhibition at 1 µM [5] was 5.5% and the inhibition at 1 µM [6] was 8.5%. It also gave an inhibition at 1 µM [7] of 14.5%, an inhibition at 1 µM [8] of 4.5% and an inhibition at 1 µM [9] of -3.5%. For the same compound, the inhibition at 1 µM [10] was 8.5%, the inhibition at 1 µM [11] was 9.5% and the inhibition at 1 µM [12] was 20.5%. The inhibition at 1 µM [13] was 1%, the inhibition at 1 µM [14] was 11% and the inhibition at 1 µM [15] was 0.5%. The inhibition at 1 µM [16] was -1.5%, the inhibition at 1 µM [17] was -10.5% and the inhibition at 1 µM [18] was 61%. It also gave an inhibition at 1 µM [19] of 2%, an inhibition at 1 µM [20] of 5% and an inhibition at 1 µM [21] of -4.5%. It also gave an inhibition at 1 µM [22] of 16%, an inhibition at 1 µM [23] of 1.5% and an inhibition at 1 µM [24] of 32.5%. For the same compound, the inhibition at 1 µM [25] was 4.5%, the inhibition at 1 µM [26] was 7% and the inhibition at 1 µM [27] was 7.5%. For the same compound, the inhibition at 1 µM [28] was 26.5%, the inhibition at 1 µM [29] was 10.5% and the inhibition at 1 µM [30] was 2%. For the same compound, the inhibition at 1 µM [31] was 15%, the inhibition at 1 µM [32] was 39% and the inhibition at 1 µM [33] was -0.5%.
